This note sets out measurements from patent publication US20110015248A1, “SUBSTITUTED HETEROCYCLES” (INTERMED DISCOVERY GMBH, priority 2003, published 2011).

In the first series the target is T1, Human red blood cell S20 proteasome (Homo sapiens, UniProt P28074).
T1 construct: host or cells: human red blood cells (native tissue preparation)
Put plainly: Proteasome inhibition assay.
Conditions: not given
Type of series: biochemical. The procedure:
The test compound is diluted at various concentrations in 2.5% DMSO in a polypropylene 96 well plate. […] The diluted working solution (10 μl/well) is transferred into a polypropylene 96 well plate. The assay buffer consists of 50 mM Tris-HCl (pH 8.0), 0.5 mM EDTA, 0.005% TritonX-100, 0.005% SDS, prepared as a stock solution at 10× concentration. The peptide substrate (Suc-Leu-Leu-Val-Tyr-MCA; 3120v; Peptide Institute; Osaka, Japan) is stored at 10 mM in 100% DMSO. […] The compound and the substrate are preincubated for 10 min at room temperature. Then the mixture of the compound and the substrate (10 μl/well) is transferred to a black non-coated 384 well assay plate (Nunc) and autofluorescence emission is measured at 460 nm (λex, 360 nm) by using a ARVO fluorescence plate leader (Perkin Elmer, Tokyo, Japan).
Human red blood cell S20 proteasome are obtained from Affinity research products Ltd (Cat#PW8720; Exeter, UK) and stored at −80° C. The proteasome is diluted 1 in 1000 with 1× concentration of the assay buffer and 10 μl is added to the substrates and the inhibitor mixture in the plate. The proteolytic reaction is performed at room temperature. The fluorescence emission is continuously measured for 90 min. IC50 values of the compounds are determined at initial velocity of the reaction.
The compound `CCCCCC[C@H]1C(=O)N[C@@]2([C@@H](O)[C@@H]3C=CCCC3)C(=O)O[C@@]12C` [Example 1, (1R,4R,5S)-1-[(S)-(1S)-2-cyclohexen-1-yl(hydroxy)methyl]-4-hexyl-5-methyl-6-oxa-2-aza-bicyclo[3.2.0]heptane-3,7-dione] registered an IC50 of 1 nM. `CCCCCC[C@H]1C(=O)N[C@](C(=O)SCCC(=O)OC)([C@@H](O)[C@@H]2C=CCCC2)[C@@]1(C)O` [Example 12, 3-[2-(Cyclohex-2-enyl-hydroxy-methyl)-4-hexyl-3-hydroxy-3-methyl-5-oxo-pyrrolidine-2-carbonylsulfanyl]-propionic acid methyl ester] returned an IC50 of 0.2 nM.

The series is the same for the next values; noted with them: substrate Suc-Leu-Leu-Val-Tyr-MCA; room temperature; IC50 determined at initial velocity of the reaction; read-out: IC50.
For `CCCCCC[C@H]1C(=O)N[C@](C(=O)SCc2ccccc2)([C@@H](O)C2CCCCC2)[C@@]1(C)O` [Example 17, 2-(Cyclohexyl-hydroxy-methyl)-4-hexyl-3-hydroxy-3-methyl-5-oxo-pyrrolidine-2-carbothioic acid S-benzyl ester], the IC50 is 106 nM.

In the case of `CCCCCC(O)[C@H]1C(=O)N[C@](C(=O)O)(C(O)[C@@H]2C=CCCC2)[C@@]1(C)O` (stereo partly drawn) [Example 4, (3S,4R)-2-[(S)-(1S)-2-cyclohexen-1-yl(hydroxy)methyl]-3-hydroxy-4-[1-hydroxy-hexyl]-3-methyl-5-oxo-D-proline], the half-inhibitory concentration (IC50) is 305 nM.

System in another series: not given
Assay: not given
Conditions: not given
In turn, `CCCCCC[C@H]1C(=O)N[C@](C(=O)SCCNC(C)=O)([C@@H](O)[C@@H]2C=CCCC2)[C@@]1(C)O` (stereo in doubt) came in with a melting point of 82 °C.

`CCCCCC(O)[C@H]1C(=O)N[C@](C(=O)SCCNC(C)=O)([C@@H](O)[C@@H]2C=CCCC2)[C@@]1(C)O` (stereo in doubt): the melting point stood at 80 °C.

Compound `CCCCCC[C@H]1C(=O)N[C@](C(=O)SCCC(=O)OC)([C@@H](O)C2CCCCC2)[C@@]1(C)O` (stereo in doubt) returned a melting point of 132 °C. In the case of `CCCCCC[C@H]1C(=O)N[C@](C(=O)SCc2ccccc2)([C@@H](O)C2CCCCC2)[C@@]1(C)O` [Example 17, 2-(Cyclohexyl-hydroxy-methyl)-4-hexyl-3-hydroxy-3-methyl-5-oxo-pyrrolidine-2-carbothioic acid S-benzyl ester], the melting point came to 181 °C. Same read-out and setting: the figure for `CCCCCC[C@H]1C(=O)N[C@](C(=O)SCCC(=O)OC)([C@@H](O)[C@@H]2C=CCCC2)[C@@]1(C)O` [Example 12, 3-[2-(Cyclohex-2-enyl-hydroxy-methyl)-4-hexyl-3-hydroxy-3-methyl-5-oxo-pyrrolidine-2-carbonylsulfanyl]-propionic acid methyl ester] is 64 °C; for `CCCCCC[C@H]1C(=O)N[C@](C(=O)SC2CCCCC2)([C@@H](O)[C@@H]2C=CCCC2)[C@@]1(C)O` (stereo in doubt) it is 85 °C; for `CCCCCC(O)[C@H]1C(=O)N[C@](C(=O)SCc2ccccc2)([C@@H](O)[C@@H]2C=CCCC2)[C@@]1(C)O` (stereo in doubt) [Example 14, 2-(Cyclohex-2-enyl-hydroxy-methyl)-3-hydroxy-4-(1-hydroxy-hexyl)-3-methyl-5-oxo-pyrrolidine-2-carbothioic acid S-benzyl ester] it is 123 °C. Still for that read-out and setting: as for `CCCCCC[C@H]1C(=O)N[C@](C(=O)SCc2ccccc2)([C@@H](O)[C@@H]2C=CCCC2)[C@@]1(C)O` (stereo in doubt), the figure is 138 °C; as for `CCCCCC(O)[C@H]1C(=O)N[C@](C(=O)SCC(=O)OC)([C@@H](O)[C@@H]2C=CCCC2)[C@@]1(C)O` (stereo in doubt), 75 °C; as for `CCCCCC[C@H]1C(=O)N[C@@]2([C@@H](O)C3CCCCC3)C(=O)O[C@@]12C` (stereo in doubt), 167 °C.

The compound `CCCCCC(O)[C@H]1C(=O)N[C@@]2(C(O)[C@@H]3C=CCCC3)C(=O)O[C@@]12C` (stereo partly drawn) gave a melting point of 144 °C.

As usually defined, the IC50 is the concentration that gives 50% inhibition. Broadly, the melting point is the temperature of the solid-liquid transition.
